Data on 21 molecules can be found in patent publication US8921410B2, “Nicotinic acetylcholine receptor sub-type selective amides of diazabicycloalkanes” (Targacept, Inc., priority 2006, dated 2014).

In one assay the target is rat α4β2 nAChR subtype (Rattus norvegicus (Rat), UniProt P09483+P12390). Kind of assay: Radioligand ([3H]nicotine) binding at α4β2 nAChR, rat cortex membranes. As to the method: Preparation of Membranes from Rat Cortex:
(§1) Rats (female, Sprague-Dawley), weighing 150-250 g, were maintained on a 12 h light/dark cycle and were allowed free access to water and food supplied by PMI Nutrition International, Inc. Animals were anesthetized with 70% CO2, and then decapitated. Brains were removed and placed on an ice-cold platform. […] The homogenate was centrifuged at 18,000×g for 20 min at 4° C. and the resulting pellet was re-suspended in 20 volumes of ice-cold water. After 60 min incubation on ice, a new pellet was collected by centrifugation at 18,000×g for 20 min at 4° C. The final pellet was re-suspended in 10 volumes of buffer and stored at −20° C.
(§2) On the day of the assay, the frozen membranes were thawed and spun at 48,000×g for 20 min. The supernatant was decanted and discarded. The pellet was resuspended in Dulbecco's phosphate buffered saline (PBS, Life Technologies) pH 7.4 and homogenized with the Polytron for 6 seconds. Protein concentrations were determined using a Pierce BCA Protein Assay Kit, with bovine serum albumin as the standard (Pierce Chemical Company, Rockford, Ill.).
(§3) Tissue was rinsed 3 times in PBS, pH 7.4. Scintillation fluid was added to filters containing the washed tissue and allowed to equilibrate.
(§4) Data were expressed as disintegrations per minute (DPMs). Within each assay, each point had 2-3 replicates. The replicates for each point were averaged and plotted against the log of the drug concentration.

The next assay addresses human α4β2 nAChR subtype (Homo sapiens (Human), UniProt P17787+P43681). Nature of the assay: Radioligand ([3H]nicotine) binding at α4β2 nAChR, SH-EP1/human α4β2 clonal cell membranes. As to conditions: read-out: Human α4β2 Ki. Here is the method:
Preparation of Membranes from SH-EP1/Human α4β2 Clonal Cells:
Cell pellets from 40 150 mm culture dishes were pooled, and homogenized by Polytron (Kinematica GmbH, Switzerland) in 20 milliliters of ice-cold preparative buffer. The homogenate was centrifuged at 48,000 g for 20 minutes at 4° C. The resulting pellet was re-suspended in 20 mL of ice-cold preparative buffer and stored at −20° C.
as §2, §3, §4

The target in the next assay is α7 nAChR subtype (Rattus norvegicus (Rat), UniProt Q05941). Nature of the assay: Radioligand ([3H]MLA) binding at α7 nAChR, rat hippocampus membranes. Here is the method: as §1, with “CO2,” for “CO2, and”, “in 10” for “in 20”
α7 nAChR subtype, sequence (Q05941 23-502): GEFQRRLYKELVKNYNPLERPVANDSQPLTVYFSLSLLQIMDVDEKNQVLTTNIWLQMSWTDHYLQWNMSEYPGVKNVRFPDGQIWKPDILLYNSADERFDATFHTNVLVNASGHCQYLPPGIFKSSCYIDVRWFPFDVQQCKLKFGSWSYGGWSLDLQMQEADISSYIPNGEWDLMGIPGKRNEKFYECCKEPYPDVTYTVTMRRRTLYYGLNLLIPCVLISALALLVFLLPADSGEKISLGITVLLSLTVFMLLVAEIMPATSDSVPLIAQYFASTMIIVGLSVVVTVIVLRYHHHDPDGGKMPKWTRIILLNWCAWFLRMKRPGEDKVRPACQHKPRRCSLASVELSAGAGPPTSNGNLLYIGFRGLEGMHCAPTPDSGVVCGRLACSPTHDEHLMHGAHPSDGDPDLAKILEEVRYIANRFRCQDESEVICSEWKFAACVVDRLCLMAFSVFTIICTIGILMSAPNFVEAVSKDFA
The binding of [^3H]MLA was measured using a modification of the methods of Davies et al., Neuropharmacol. […] [^3H]MLA (Specific Activity=25-35 Ci/mmol) was obtained from Tocris. The binding of [^3H]MLA was determined using a 2 h incubation at 21° C. Incubations were conducted in 48-well micro-titre plates and contained about 200 μg of protein per well in a final incubation volume of 300 μL. The incubation buffer was PBS and the final concentration of [^3H]MLA was 5 nM. The binding reaction was terminated by filtration of the protein containing bound ligand onto glass fiber filters (GF/B, Brandel) using a Brandel Tissue Harvester at room temperature. […] Each filter was washed with PBS (3×1 mL) at room temperature. Non-specific binding was determined by inclusion of 50 μM non-radioactive MLA in selected wells.
The inhibition of [^3H]MLA binding by test compounds was determined by including seven different concentrations of the test compound in selected wells. Each concentration was replicated in triplicate. IC50 values were estimated as the concentration of compound that inhibited 50 percent of specific [^3H]MLA binding.

The mark [1] stands for this setting: did not bind sufficiently in HTS at α7 to warrant Ki determination.
[2] abbreviates: [3H]nicotine 5 nM, rat cortex membranes.
The mark [3] stands for this setting: [3H]nicotine 5 nM, SH-EP1/human α4β2 membranes.
[4] abbreviates: [3H]MLA 5 nM, rat hippocampus membranes.

Structures are written as SMILES. Like-named read-outs stand apart in the source and are kept apart here.

rat α4β2 nAChR subtype, sequence (P09483 31-630): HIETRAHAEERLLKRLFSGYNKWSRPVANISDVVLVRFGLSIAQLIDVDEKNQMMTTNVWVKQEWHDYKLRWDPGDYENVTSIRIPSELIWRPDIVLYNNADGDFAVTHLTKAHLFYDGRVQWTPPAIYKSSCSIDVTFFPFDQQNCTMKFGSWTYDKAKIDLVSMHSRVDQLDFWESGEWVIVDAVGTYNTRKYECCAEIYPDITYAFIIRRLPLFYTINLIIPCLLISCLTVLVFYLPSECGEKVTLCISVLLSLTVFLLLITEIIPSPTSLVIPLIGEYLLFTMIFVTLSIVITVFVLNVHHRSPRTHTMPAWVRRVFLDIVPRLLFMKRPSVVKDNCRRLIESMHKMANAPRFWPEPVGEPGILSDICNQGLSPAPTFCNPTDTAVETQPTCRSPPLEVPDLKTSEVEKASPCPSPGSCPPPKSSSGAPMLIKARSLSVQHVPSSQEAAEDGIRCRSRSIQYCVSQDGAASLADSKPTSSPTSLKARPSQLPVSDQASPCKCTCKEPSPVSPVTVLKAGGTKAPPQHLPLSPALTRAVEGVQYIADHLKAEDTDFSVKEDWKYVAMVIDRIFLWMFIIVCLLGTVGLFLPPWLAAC
rat α4β2 nAChR subtype, sequence (P12390 25-500): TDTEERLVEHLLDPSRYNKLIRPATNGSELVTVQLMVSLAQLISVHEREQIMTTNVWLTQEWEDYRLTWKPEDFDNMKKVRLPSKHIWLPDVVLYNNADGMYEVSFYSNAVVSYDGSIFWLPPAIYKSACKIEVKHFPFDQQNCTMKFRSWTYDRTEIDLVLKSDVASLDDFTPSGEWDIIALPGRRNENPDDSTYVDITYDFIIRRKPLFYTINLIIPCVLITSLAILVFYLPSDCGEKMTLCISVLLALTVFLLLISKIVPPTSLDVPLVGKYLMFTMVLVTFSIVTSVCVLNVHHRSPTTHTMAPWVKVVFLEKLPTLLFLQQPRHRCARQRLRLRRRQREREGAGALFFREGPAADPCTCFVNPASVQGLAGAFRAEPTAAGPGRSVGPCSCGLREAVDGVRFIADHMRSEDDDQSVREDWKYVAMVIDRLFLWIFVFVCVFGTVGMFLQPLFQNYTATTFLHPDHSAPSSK
human α4β2 nAChR subtype, sequence (P43681 29-627): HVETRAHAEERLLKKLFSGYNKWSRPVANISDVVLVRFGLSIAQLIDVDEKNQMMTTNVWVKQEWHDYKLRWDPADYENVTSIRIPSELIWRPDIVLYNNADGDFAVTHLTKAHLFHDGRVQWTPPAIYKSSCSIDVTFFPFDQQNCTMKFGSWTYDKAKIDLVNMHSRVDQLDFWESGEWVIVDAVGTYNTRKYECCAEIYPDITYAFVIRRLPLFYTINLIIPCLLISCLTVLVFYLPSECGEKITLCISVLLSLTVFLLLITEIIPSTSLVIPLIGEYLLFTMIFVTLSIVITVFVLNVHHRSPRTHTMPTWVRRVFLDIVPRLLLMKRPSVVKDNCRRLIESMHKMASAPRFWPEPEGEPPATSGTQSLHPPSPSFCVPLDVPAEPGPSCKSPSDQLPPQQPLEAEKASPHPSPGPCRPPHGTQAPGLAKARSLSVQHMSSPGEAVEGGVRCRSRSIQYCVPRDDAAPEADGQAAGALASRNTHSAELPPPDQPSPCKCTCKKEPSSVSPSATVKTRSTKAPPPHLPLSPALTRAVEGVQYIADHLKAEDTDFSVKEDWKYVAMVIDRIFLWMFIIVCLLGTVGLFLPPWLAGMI
human α4β2 nAChR subtype, sequence (P17787 26-502): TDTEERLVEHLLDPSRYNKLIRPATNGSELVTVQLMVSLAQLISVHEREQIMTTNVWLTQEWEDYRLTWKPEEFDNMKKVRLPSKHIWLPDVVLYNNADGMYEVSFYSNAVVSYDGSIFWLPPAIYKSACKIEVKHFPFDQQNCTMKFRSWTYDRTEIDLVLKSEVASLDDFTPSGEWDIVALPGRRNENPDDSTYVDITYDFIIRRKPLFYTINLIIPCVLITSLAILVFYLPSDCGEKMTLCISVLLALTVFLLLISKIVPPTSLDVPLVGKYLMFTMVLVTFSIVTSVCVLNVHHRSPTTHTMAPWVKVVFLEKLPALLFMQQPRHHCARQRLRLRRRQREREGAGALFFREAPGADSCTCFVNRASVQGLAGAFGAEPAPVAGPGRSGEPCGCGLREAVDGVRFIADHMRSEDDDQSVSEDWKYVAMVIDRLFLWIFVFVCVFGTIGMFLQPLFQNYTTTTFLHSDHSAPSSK

For the molecule `N#Cc1ccc(C(=O)N2CC3CNCC(C3)C2)o1`, the Ki – broadly, a measure of affinity in units of concentration, obtained from inhibition or displacement – was determined as 35 nM on rat α4β2 nAChR subtype and 8.7 nM on human α4β2 nAChR subtype. For the same molecule, the “α7 high through-put screening outcome (Ki not determined)” value at α7 nAChR subtype (setting [1]) is given as “ND; failed HTS”.
On to `O=C(c1ccno1)N1CC2CNCC(C2)C1`, for which the figures for the Ki on rat α4β2 nAChR subtype (setting [2]) and on human α4β2 nAChR subtype (setting [3]) were 52 nM and 30 nM, respectively. Moreover, on α7 nAChR subtype (setting [1]), the “α7 high through-put screening outcome (Ki not determined)” value is listed as “ND; failed HTS”.
On the same counts, the results for `O=C(c1cc(C(F)(F)F)co1)N1CC2CNCC2C1` (stereo not shown) are 320 nM, 36 nM and “ND; failed HTS”.
On the same counts, the results for `O=C(c1ccc(F)o1)N1CC2CNCC2C1` (stereo not shown) are 8.3 nM, 16 nM and “ND; failed HTS”.
As to `Cc1ccc(C(=O)N2CC3CNCC3C2)o1` (stereo not shown), the Ki amounted to 130 nM at rat α4β2 nAChR subtype, 28 nM on human α4β2 nAChR subtype (setting [3]) and 23000 nM at α7 nAChR subtype.
Regarding `O=C(c1cc(Br)no1)N1CC2CNCC2C1` (stereo not shown), the results for the Ki on rat α4β2 nAChR subtype (setting [2]) and on human α4β2 nAChR subtype (setting [3]) were 17 nM and 44 nM, respectively. Also, the “α7 high through-put screening outcome (Ki not determined)” value at α7 nAChR subtype (setting [1]) is listed as “ND; failed HTS”.
On to `O=C(c1occc1Br)N1CC2CNCC2C1` (stereo not shown), for which the Ki turned out to be 1.5 nM at rat α4β2 nAChR subtype, 1.5 nM at human α4β2 nAChR subtype (setting [3]) and 12000 nM on α7 nAChR subtype (setting [4]).
Regarding `C=Cc1ccoc1C(=O)N1CC2CNCC2C1` (stereo not shown), the Ki at rat α4β2 nAChR subtype (setting [2]) was determined as 140 nM; at human α4β2 nAChR subtype (setting [3]), 51 nM. Also, the “α7 high through-put screening outcome (Ki not determined)” value at α7 nAChR subtype (setting [1]) is given as “ND; failed HTS”.
As for `O=C(c1ccc(Br)o1)N1CC2CNCC2C1` (stereo not shown), the inhibitory constant (Ki) stood at 54 nM on rat α4β2 nAChR subtype (setting [2]), 73 nM at human α4β2 nAChR subtype (setting [3]) and 12000 nM at α7 nAChR subtype.
On to `COc1ccoc1C(=O)N1CC2CNCC2C1` (stereo not shown), for which the results for the Ki at rat α4β2 nAChR subtype (setting [2]) and at human α4β2 nAChR subtype (setting [3]) were 353 nM and 100 nM, respectively. Further, the “α7 high through-put screening outcome (Ki not determined)” value on α7 nAChR subtype (setting [1]) is “ND; failed HTS”.
The like results for `Cc1cc(C(=O)N2CC3CNCC3C2)on1` (stereo not shown) were, in that order, 32 nM, 31 nM and “ND; failed HTS”.
On the same counts, the results for `O=C(c1cc(F)co1)N1CC2CNCC(C2)C1` are 28 nM, 14 nM and “ND; failed HTS”.
The like results for `N#Cc1ccoc1C(=O)N1CC2CNCC(C2)C1` were, in that order, 110 nM, 31 nM and “ND; failed HTS”.
On to `O=C(c1cc(Br)co1)N1CC2CNCC(C2)C1`, for which the Ki on rat α4β2 nAChR subtype (setting [2]) turned out to be 12 nM; at human α4β2 nAChR subtype, 1.7 nM. Also, the “α7 high through-put screening outcome (Ki not determined)” value at α7 nAChR subtype is on record as “ND; failed HTS”.
As to `Cc1ccoc1C(=O)N1CC2CNCC2C1` (stereo not shown), the inhibition constant Ki came out at 44 nM at rat α4β2 nAChR subtype (setting [2]), 54 nM on human α4β2 nAChR subtype (setting [3]) and 25000 nM on α7 nAChR subtype (setting [4]).
On the same counts, the results for `O=C(c1ccncc1)N1CC2CNCC(C2)C1` are 110 nM, 18 nM and 1700 nM.
Consider `O=C(c1occc1F)N1CC2CNCC2C1` (stereo not shown), for which the figures for the Ki on rat α4β2 nAChR subtype (setting [2]) and on human α4β2 nAChR subtype (setting [3]) were 35 nM and 27 nM, respectively. Further, the “α7 high through-put screening outcome (Ki not determined)” value at α7 nAChR subtype is reported as “ND; failed HTS”.
Take `Cc1cc(C(=O)N2CC3CNCC3C2)no1` (stereo not shown): the Ki came to 150 nM on rat α4β2 nAChR subtype (setting [2]) and 84 nM on human α4β2 nAChR subtype (setting [3]). Further, at α7 nAChR subtype (setting [1]), the “α7 high through-put screening outcome (Ki not determined)” value was “ND; failed HTS”.
Turning to `COc1cc(C(=O)N2CC3CNCC(C3)C2)on1`, the values for the inhibition constant (Ki) on rat α4β2 nAChR subtype and on human α4β2 nAChR subtype (setting [3]) were 33 nM and 180 nM, respectively. For the same molecule, at α7 nAChR subtype (setting [1]), the “α7 high through-put screening outcome (Ki not determined)” value is listed as “ND; failed HTS”.
For the molecule `O=C(c1ccc([N+](=O)[O-])o1)N1CC2CNCC2C1` (stereo not shown), the inhibitory constant (Ki) on rat α4β2 nAChR subtype (setting [2]) came to 35 nM; on human α4β2 nAChR subtype (setting [3]) it was 31 nM; at α7 nAChR subtype (setting [4]), 2900 nM.
Regarding `O=C(c1cc(Br)c(Br)o1)N1CC2CNCC(C2)C1`, the “α7 high through-put screening outcome (Ki not determined)” value at α7 nAChR subtype (setting [1]) is on record as “ND; failed HTS”.
